{
  "source": "paper PMC5992921",
  "about": "“The effect of different divalent cations on the kinetics and fidelity of Bacillus stearothermophilus DNA polymerase” (AIMS biophysics, 2018)",
  "molecular_target": "T1, BST pol (Bacillus stearothermophilus DNA polymerase) (Geobacillus stearothermophilus, UniProt P52026)",
  "T1 construct": "gene polA",
  "T1 sequence (P52026 297-876 limits assumed)": "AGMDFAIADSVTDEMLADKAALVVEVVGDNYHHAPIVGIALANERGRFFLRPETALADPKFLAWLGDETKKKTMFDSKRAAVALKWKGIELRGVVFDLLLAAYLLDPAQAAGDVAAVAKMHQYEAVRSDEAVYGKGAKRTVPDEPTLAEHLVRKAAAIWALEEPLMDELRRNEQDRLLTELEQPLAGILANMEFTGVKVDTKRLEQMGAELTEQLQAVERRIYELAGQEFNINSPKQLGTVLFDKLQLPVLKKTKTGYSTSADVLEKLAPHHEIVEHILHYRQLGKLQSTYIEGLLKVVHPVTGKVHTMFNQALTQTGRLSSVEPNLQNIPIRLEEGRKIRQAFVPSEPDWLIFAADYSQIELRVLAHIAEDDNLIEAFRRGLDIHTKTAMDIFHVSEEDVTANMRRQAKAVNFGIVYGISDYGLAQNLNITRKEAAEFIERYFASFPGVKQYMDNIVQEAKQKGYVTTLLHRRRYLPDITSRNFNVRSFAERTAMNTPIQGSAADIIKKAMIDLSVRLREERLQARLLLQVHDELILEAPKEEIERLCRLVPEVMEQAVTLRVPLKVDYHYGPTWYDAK",
  "experiment": "equilibrium 2-aminopurine fluorescence quenching titration",
  "format": "binding",
  "details": "read-out: Kd,g",
  "data": [
    {"smiles": "Nc1ccn([C@H]2C[C@H](O)[C@@H](COP(=O)(O)OP(=O)(O)OP(=O)(O)O)O2)c(=O)n1", "note": "[dCTP]", "values": [
      {"measurement": "Kd", "result": "1460 ± 130", "unit": "µM"}
    ]}
  ]
}
